# Laboratory results published in patent US6562632B1, “Reactive derivatives of sulforhodamine 101 with enhanced hydrolytic stability” (Molecular Probes, Inc., priority 1995, dated 2003).
# “And” between values parts separate entries of the source, which are not always exact repeats. Equal entries are not always repeated.
# How the values were obtained:
# streptavidin (STR) = streptavidin (STR) (Streptomyces avidinii, UniProt P22629); test: Protein labeling with reactive dye, degree of substitution on streptavidin; settings: for Degree of Substitution: STR
# Sequence of streptavidin (STR) (P22629 25-183, species assumed): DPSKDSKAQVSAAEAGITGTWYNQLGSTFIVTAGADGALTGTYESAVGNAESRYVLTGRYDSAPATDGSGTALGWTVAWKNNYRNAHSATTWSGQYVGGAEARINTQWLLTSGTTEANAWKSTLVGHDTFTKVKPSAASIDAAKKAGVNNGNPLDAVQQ
# Description: Protein conjugates of sulforhodamine 101 are prepared using Compound 2 (Example 2). The degree of substitution achieved on the selected proteins (bovine serum albumin (BSA), goat anti-mouse IgG (GAM) or streptavidin (STR)) is then determined.
# A fresh solution of the desired protein is prepared that is 10 mg protein/mL in 0.1 M sodium bicarbonate. The labeling reagent (Compound 2) is dissolved in DMF to give a concentration of 10 mg dye/mL. Predetermined amounts of the labeling reagent in DMF are slowly added to the protein solution with stirring. A molar ratio of 10 equivalents dye to equivalent of protein is typical, though the optimal amount varies with particular labeling reagent and protein being labeled. The reaction mixture is incubated at room temperature for one hour. The dye-protein conjugate is separated from free unreacted reagent by gel filtration on a CELLUFINE GH-25 column equilibrated in PBS. The initial, protein-containing colored band is collected from the column, and the degree of substitution is determined by measuring the absorbance of the conjugate at 595 nm, and calculating the degree of substitution using an extinction coefficient of 80,000 cm^−1M^−1 for the dye.
# Dye conjugates are similarly prepared using SSC excepting that the protein solution is maintained at pH 9, and the labeling reaction is conducted at ice bath temperatures to minimize hydrolysis of the labeling reagent.
# [1] = 90% DMF and 10% aqueous sodium bicarbonate; two hours of incubation; TLC
# Description: Compound 2 and SSC are separately dissolved in solutions that are 90% DMF and 10% aqueous sodium bicarbonate. Each solution is analyzed using thin layer chromatography (TLC) as follows: An aliquot from each sample is diluted 1:100 in methanol and 1 μL of the resulting solution is spotted on a silica gel TLC plate and developed in 15% methanol in chloroform.
# [2] = biological target: bovine serum albumin (BSA) (Bos taurus, UniProt P02769); test: Protein labeling with reactive dye, degree of substitution on BSA; settings: Dye:Protein Ratio 15
# Sequence of bovine serum albumin (BSA) (P02769 25-607): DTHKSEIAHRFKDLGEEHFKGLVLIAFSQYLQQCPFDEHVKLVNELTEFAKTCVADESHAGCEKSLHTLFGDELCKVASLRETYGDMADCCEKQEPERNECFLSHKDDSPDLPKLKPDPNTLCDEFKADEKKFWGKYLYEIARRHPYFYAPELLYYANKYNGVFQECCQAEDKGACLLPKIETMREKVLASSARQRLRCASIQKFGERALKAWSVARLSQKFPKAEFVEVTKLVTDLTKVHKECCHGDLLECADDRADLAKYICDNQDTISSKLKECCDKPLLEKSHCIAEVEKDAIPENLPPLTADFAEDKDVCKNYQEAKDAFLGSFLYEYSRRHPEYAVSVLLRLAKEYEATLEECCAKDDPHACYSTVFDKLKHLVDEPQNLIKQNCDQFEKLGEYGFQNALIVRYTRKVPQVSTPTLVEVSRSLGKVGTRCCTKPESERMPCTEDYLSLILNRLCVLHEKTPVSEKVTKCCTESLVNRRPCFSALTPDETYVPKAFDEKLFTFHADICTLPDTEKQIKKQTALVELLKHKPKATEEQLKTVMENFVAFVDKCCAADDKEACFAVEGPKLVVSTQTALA
# Description: A fresh solution of the desired protein is prepared that is 10 mg protein/mL in 0.1 M sodium bicarbonate. […] Predetermined amounts of the labeling reagent in DMF are slowly added to the protein solution with stirring. A molar ratio of 10 equivalents dye to equivalent of protein is typical, though the optimal amount varies with particular labeling reagent and protein being labeled. The reaction mixture is incubated at room temperature for one hour. The dye-protein conjugate is separated from free unreacted reagent by gel filtration on a CELLUFINE GH-25 column equilibrated in PBS. The initial, protein-containing colored band is collected from the column, and the degree of substitution is determined by measuring the absorbance of the conjugate at 595 nm, and calculating the degree of substitution using an extinction coefficient of 80,000 cm^−1M^−1 for the dye.
Compound,Degree of Substitution (streptavidin (STR); Dye:Protein Ratio 1),Degree of Substitution (streptavidin (STR); Dye:Protein Ratio 2.5),Degree of Substitution (streptavidin (STR); Dye:Protein Ratio 5.5),Degree of Substitution (streptavidin (STR); Dye:Protein Ratio 8.0),Degree of Substitution (streptavidin (STR); Dye:Protein Ratio 10),Degree of Substitution (streptavidin (STR); Dye:Protein Ratio 20),Degree of Substitution (streptavidin (STR); Dye:Protein Ratio 30),Decomposition in the presence of water [1],Degree of Substitution [2],Degree of substitution of the streptavidin conjugates used as immunoreagents (streptavidin (STR); two conjugates used in Example 24)
O=C(CCCCCNS(=O)(=O)c1ccc(C2=c3cc4c5c(c3Oc3c2cc2c6c3CCCN6CCC2)CCC[N+]=5CCC4)c(S(=O)(=O)[O-])c1)ON1C(=O)CCC1=O [Compound 2],0.76,1.6,4.4,5.6,6.0,6.0,6.9,10-20%,4.5,
"sulfonyl chloride of sulforhodamine 101 [SSC, reference compound]",0.066,1.2,2.4,3.0,3.9,4.9,5.1,,3.2,
streptavidin conjugates of SSC: two streptavidin conjugates prepared with SSC [reference compound],,,,,,,,,,2.4 dyes per mole and 3.9 dyes per mole
